According to patent US20090220435A1, “TIGHT JUNCTION MODULATING PEPTIDE COMPONENTS FOR ENHANCING MUCOSAL DELIVERY OF THERAPEUTIC AGENTS” (priority 2005, published 2009):

What was measured:
[1] = tested on: EpiAirway™ human-derived tracheal/bronchial epithelial cells; test: Cytotoxicity (LDH assay); type: cell-based; settings: for LDH15: 15 minute treatment at the peptide's optimal concentration; for LDH60: 60 minute treatment at the peptide's optimal concentration
Experimental: The amount of cell death was assayed by measuring the loss of lactate dehydrogenase (LDH) from the cells using a CytoTox 96 Cytoxicity Assay Kit (Promega Corp., Madison, Wis.). Fifty microliters of sample was loaded into a 96-well assay plates. Fresh, cell-free culture medium was used as a blank. 50 μl of substrate solution was added to each well and the plates incubated for 30 minutes at room temperature in the dark. Following incubation, 50 μl of stop solution was added to each well and the plates read on an optical density plate reader at 490 nm.
The amount of cell death will be assayed by measuring the loss of lactate dehydrogenase (LDH) from the cells using a CytoTox 96 Cytotoxicity Assay Kit (Promega Corp., Madison, Wis.). Fifty microliters of sample will be loaded into a 96-well assay plates. Fresh, cell-free culture medium will be used as a blank. Fifty microliters of substrate solution will be added to each well and the plates incubated for 30 minutes at room temperature in the dark. Following incubation, 50 μl of stop solution will be added to each well and the plates read on an optical density plate reader at 490 nm. The measurement of LDH release into the basolateral media indicates relative cytotoxicity of the samples. One hundred percent lysis of control inserts with 0.3% Octylphenolpoly(ethyleneglycolether)×(TritonX-100) allows LDH values to be expressed as percentage of total lysis.
In some embodiments, The amount of cell death was assayed by measuring the release of lactate dehydrogenase (LDH) from the cells into the apical medium using a CytoTox 96 Cytotoxicity Assay Kit (Promega Corp., Madison, Wis.). One percent Octylphenolpoly (ethyleneglycolether)×(Triton X-100™) diluted in phosphate buffered saline (PBS) causes 100% lysis in cultured cells and served herein as a positive control for the LDH assay. Following the one hour incubation period with a test formulation (refer to Table 24 of Example 25 for details of test formulations), the total liquid volume of each insert was brought to a final volume of 200 μl with culture medium. The apical medium was then mixed by pipetting four times with a multichannel pipette set to a 100 μl volume. After mixing, a 100 μl sample from the apical side of each insert was transferred to a new 96-well plate. The apical media samples were sealed with a plate sealer and stored at room temperature for same day analysis or stored overnight at 4° C. for analysis the next day. To measure LDH levels, 5 μl of the 100 μl apical media sample was diluted in 45 μl DPBS in a new 96-well plate. Fresh, cell-free culture medium will be used as a blank. Fifty microliters of substrate solution was added to each well and incubated for 30 minutes at room temperature away from direct light. Following the 30 minute incubation, 50 μl of stop solution was added to each well. Optical density (OD) was measured at 490 nm with a uQuant absorbance plate reader from Biotek Instruments. The measurement of LDH release into the apical media indicates relative cytotoxicity of the samples. Percent cytotoxicity for each test formulation was calculated by subtracting the measured absorbance of the PBS control (basal level of LDH release) from the measured absorbance of the individual test formulation and then dividing that value by the measured absorbance for the 1% Triton X-100™ positive control, multiplied by 100.
An LDH assay was used to assess the cytotoxicity of the treatments. The LDH level was determined by CytoTox96 Non-Radioactive Cytotoxic Assay (Promega, Madison, Wis.) following the manufacturer's protocol. For basal-lateral LDH levels, triplicates of 50 ul of the basal medium were used to determine the LDH level. For apical LDH level, 150 ul of the diluted apical sample was removed by adding 150 ul of Epi-CM to the apical chamber, the medium was mixed by pipeting up and down, and 150 ul medium was removed and diluted 2× (for a final 8-fold dilution) for assay in triplicates of 50 ul.

[2] = Chemical stability of PN159 (stability indicating HPLC); type: physicochemical; settings: pH 9 and/or elevated temperature, 40 to 50° C.
Experimental: The chemical stability of the PN159 was determined under therapeutically relevant storage conditions. A stability indicating HPLC method was employed. Solutions (50 mM) were stored at various pH (4.0, 7.3, and 9.0) and temperature (5° C., 25° C., 35° C., 40° C., and 50° C.) conditions. Samples at pH 4 contained 10 mM citrate buffer. Samples at pH 7.3 and 9.0 contained 10 mM phosphate buffer. Representative storage stability data (including the Arrhenius plot) are depicted in FIG. 6. […] For example, at 5° C. and pH 4.0 or pH7.3, there was essentially 100% recovery of PN159 for six month storage. […] The pH range of 4.0 to 7.3 and the temperature range of refrigerated to ambient are most relevant for intranasal formulations.
The chemical stability of the PN159 was determined under therapeutically relevant storage conditions. A stability indicating HPLC method was employed. Solutions (50 mM) were stored at various pH (4.0, 7.3, and 9.0) and temperature (5° C., 25° C., 35° C., 40° C., and 50° C.) conditions. Samples at pH 4 contained 10 mM citrate buffer. Samples at pH 7.3 and 9.0 contained 10 mM phosphate buffer. […] For example, at 5° C. and pH 4.0 or pH 7.3, there was essentially 100% recovery of PN159 for six month storage. […]
The chemical stability of the PN159 was determined under therapeutically relevant storage conditions. […]

[3] = tested on: EpiAirway™ human-derived tracheal/bronchial epithelial cells; test: Transepithelial electrical resistance (TER) across EpiAirway epithelial cell layer; type: cell-based
[4] = tested on: EpiAirway™ human-derived tracheal/bronchial epithelial cells; test: TER recovery after peptide treatment; type: cell-based; settings: among all TJMPs tested

## CC(C)C[C@H](NC(=O)[C@H](C)NC(=O)[C@H](CCCCN)NC(=O)[C@H](CC(C)C)NC(=O)[C@H](C)NC(=O)[C@H](CC(C)C)NC(=O)[C@H](CCCCN)NC(=O)[C@H](CC(C)C)NC(=O)[C@H](C)NC(=O)[C@H](CC(C)C)NC(=O)[C@@H](N)CCCCN)C(=O)N[C@@H](CCCCN)C(=O)N[C@@H](C)C(=O)N[C@@H](C)C(=O)N[C@@H](CC(C)C)C(=O)N[C@@H](CCCCN)C(=O)N[C@@H](CC(C)C)C(=O)N[C@@H](C)C(N)=O [PN159]
[1]; 25 μM, 1 h
  % Triton-X LDH Release: 31%
[1]; 25-100 μM PN159 with 2 mg/ml PTH
  cytotoxicity (LDH): no significant cytotoxicity
[1]
  LDH15: 0.007
  LDH60: 0.002
[2]
  chemical stability: rapid deterioration
[3]; 1 μM peptide
  TER reduction: 54%
[3]; 2.5 μM peptide
  TER reduction: 79%
[3]; 10 μM peptide
  TER reduction: 89%
[3]; 25 μM peptide
  TER reduction: 94%
[3]; 25 μM, 1 h, pH 7
  % T0 TER: 7%
[3]; 40 mg/ml galantamine lactate, 25, 50, 100 μM PN159, pH 5.0
  TER in the presence of galantamine: reduced TER
[3]; PN159 25, 50, 100 μM with 2 mg/ml PTH, pH 4.5
  TER reduction: more than 80%
[3]; relative to PN159 = 1.0
  Relative TER Decrease: 1.0

## CC[C@H](C)[C@H](NC(=O)[C@H](CCCCN)NC(=O)[C@H](CCCCN)NC(=O)[C@H](C)NC(=O)[C@H](CC(C)C)NC(=O)[C@H](C)NC(=O)[C@H](C)NC(=O)[C@H](CC(C)C)NC(=O)[C@H](C)NC(=O)[C@H](CCCCN)NC(=O)[C@H](CC(C)C)NC(=O)[C@H](CC(N)=O)NC(=O)[C@@H](NC(=O)[C@H](CCCCN)NC(=O)CNC(=O)[C@H](CC(C)C)NC(=O)[C@H](CC(C)C)NC(=O)[C@H](Cc1ccc(O)cc1)NC(=O)CNC(=O)[C@H](C)NC(=O)[C@H](CO)NC(=O)[C@H](CC(N)=O)NC(=O)[C@H](CC(C)C)NC(=O)[C@@H](NC(=O)[C@H](Cc1c[nH]c2ccccc12)NC(=O)CN)[C@@H](C)O)[C@@H](C)CC)C(=O)N[C@@H](CC(C)C)C(N)=O [PN161]
[1]
  LDH15: 0.0017
  LDH60: 0.01
[3]; 2.5 μM peptide
  TER reduction: 11%
[3]; 10 μM peptide
  TER reduction: 43%
[3]; 25 μM peptide
  TER reduction: 73%
[3]; 100 μM peptide
  TER reduction: 84%
[4]
  TER recovery time: fastest recovery time

## H-LLETLLKPFQCRICMRNFSTRQARRNHRRRHRR-NH2 (cysteine pairing not given here) [PN202]
[1]
  LDH15: 0.0011
  LDH60: 0.02
[3]; 10 μM peptide
  TER reduction: 3%
[3]; 50 μM peptide
  TER reduction: 57%
[3]; 100 μM peptide
  TER reduction: 95%
[3]; 500 μM peptide
  TER reduction: 95%
[4]
  TER recovery time: fastest recovery time

## H-RRRQRRKRGGDIMGEWGNEIFGAIAGFLG-NH2 [PN250]
[1]
  LDH15: 0.0016
  LDH60: 0.031
[3]; 10 μM peptide
  TER reduction: 3%
[3]; 25 μM peptide
  TER reduction: 17%
[3]; 100 μM peptide
  TER reduction: 58%
[3]; 250 μM peptide
  TER reduction: 79%
[3]; 500 μM peptide
  TER reduction: 84%
[4]
  TER recovery time: fastest recovery time
